Experimental findings from ChEMBL document CHEMBL4190378, “Synthesis and evaluation of new 2-chloro-4-aminopyrimidine and 2,6-dimethyl-4-aminopyrimidine derivatives as tubulin polymerization inhibitors” (Bioorg Med Chem Lett, 2018) are described below.

One assay has as its system HCT-116. The assay can be described thus: Antiproliferative activity against human HCT116 cells incubated for 48 hrs by MTT assay. Format: functional, cell-based. The settings on record: HCT-116, 48 h. A general note: Formazan colour is commonly taken as a measure of viable cells.
Assay [1] concerns HeLa. The assay can be described thus: Induction of apoptosis in human HeLa cells assessed as viable cells level at 500 nM incubated for 48 hrs by Annexin-V/FITC and propidium iodide staining based flow cytometry (reference value: 99.72%). Format: functional. (In general: A flow cytometer gives signals particle by particle.)
Assay [2] has as its system HeLa. The assay can be described thus: Induction of apoptosis in human HeLa cells assessed as early apoptotic cells level at 50 nM incubated for 48 hrs by Annexin-V/FITC and propidium iodide staining based flow cytometry (reference value: 0.16%). The class given is functional.
The test system of assay [3] is HeLa. Description: Induction of apoptosis in human HeLa cells assessed as early apoptotic cells level at 100 nM incubated for 72 hrs by Annexin-V/FITC and propidium iodide staining based flow cytometry (reference value: 0.16%). Format: functional.
Assay [4] concerns HeLa. Description: Induction of apoptosis in human HeLa cells assessed as early apoptotic cells level at 50 nM incubated for 72 hrs by Annexin-V/FITC and propidium iodide staining based flow cytometry (reference value: 0.16%). Format: functional.
Assay [5] can be described thus: Inhibition of porcine brain tubulin polymerization measured every 60 secs for 90 mins by DAPI dye based fluorescence assay. Also on record: species or system Sus scrofa.
In assay [6] the test system is HeLa. The assay can be described thus: Induction of cell cycle arrest in human HeLa cells assessed as tetraploid peaks level at 50 nM incubated for 24 hrs by propidium iodide staining based flow cytometry. Format: functional.
Assay [7] concerns HeLa. The assay can be described thus: Induction of mitochondrial transmembrane potential loss in human HeLa cells at 50 nM incubated for 24 hrs by JC1 staining based fluorescence microscopy. The class given is functional, cell-based.
Assay [8] relates to HeLa. Description: Induction of apoptosis in human HeLa cells assessed as viable cells level at 50 nM incubated for 72 hrs by Annexin-V/FITC and propidium iodide staining based flow cytometry (reference value: 99.72%). The class given is functional.
Assay [9] concerns HeLa. Description: Induction of apoptosis in human HeLa cells assessed as necrotic cells level at 50 nM incubated for 48 hrs by Annexin-V/FITC and propidium iodide staining based flow cytometry (reference value: 0.03%). The class given is functional.
The test system of assay [10] is HeLa. Description: Induction of apoptosis in human HeLa cells assessed as necrotic cells level at 50 nM incubated for 72 hrs by Annexin-V/FITC and propidium iodide staining based flow cytometry (reference value: 0.03%). Format: functional.
For assay [11], the system named is HeLa. The assay can be described thus: Induction of mitochondrial transmembrane potential loss in human HeLa cells assessed as JC1 dye aggregates level at 100 nM incubated for 24 hrs by JC1 staining based flow cytometry (reference value: 95.85%). Format: functional.
Assay [12] deals with HeLa. The assay can be described thus: Induction of apoptosis in human HeLa cells assessed as viable cells level at 100 nM incubated for 72 hrs by Annexin-V/FITC and propidium iodide staining based flow cytometry (reference value: 99.72%). Format: functional.
Assay [13] concerns HeLa. Description: Induction of apoptosis in human HeLa cells assessed as necrotic cells level at 500 nM incubated for 48 hrs by Annexin-V/FITC and propidium iodide staining based flow cytometry (reference value: 0.03%). Format: functional.
Assay [14] deals with HeLa. Description: Induction of cell cycle arrest in human HeLa cells assessed as induction of disappearance of G2/M phase at 100 nM incubated for 48 hrs by propidium iodide staining based flow cytometry. The class given is functional.

The source made the active and inactive calls. No cut-off for these calls is given here.

Usually IC50 stands for the concentration that gives 50% inhibition. Take `COc1ccc(N(C)c2cc(C)nc(C)n2)cc1O`: the IC50 in the assay on HCT-116 was 126 nM; in assay [5], 5810 nM. Further, the Activity with HeLa [1] came to 29.81%; in the assay with HeLa [2], 10.44%; with HeLa [3], 21.09%; in the assay on HeLa [4] it was 9.78%; with HeLa [6], 28.3%; in the assay on HeLa [8], 82.18%. The Activity with HeLa [9] is given as 0.01%; in the assay with HeLa [10] it was 0.6%; in the assay with HeLa [11], 70.71%; in the assay on HeLa [12], 65.2%; with HeLa [13], 0.29%. In addition, the outcome in the assay on HeLa [7] and in the assay with HeLa [14] was Active.
